“And” between values parts separate entries of the source, which are not always exact repeats. Identical values can stand only once. “Also recorded” adds a separate entry of the source.
Key:
[1] = tested on: middle cerebral artery occlusion (MCAO) in rats; assay: Forelimb placing test after MCAO; format: in vivo, Sprague Dawley rats; design: Forelimb Placing Total Score, Mean: scale not given here; details: for Forelimb Placing Total Score, Mean: group mean N=15; for Forelimb Placing Total Score: individual animals, 0=normal, 12=maximally impaired
Protocol: (§1) 4-AP was evaluated for its ability to promote functional sensorimotor improvement following ischemic stroke in rats with stable motor deficits at times remote from their ischemic events. The animal model mimics the conditions in human ischemic stroke and is produced by middle cerebral artery occlusion (MCAO), which results in extensive infarction in cerebral cortex and striatum, including the cortical spinal tract (white matter). In particular, the MCAO model in Sprague Dawley rats that was utilized in the experiments presented below mimics the conditions in human ischemic stroke. In this experiment, Sprague Dawley rats were anesthetized, subjected to a surgery resulting in middle cerebral artery occlusion (MCAO), treated with and without 4-aminopyridine and behavioral assessments were performed as described below. Surgical Procedure: A small focal stroke (infarct) was made on the right side of the surface of the brain (cerebral cortex) by middle cerebral artery occlusion (MCAO). The right side of the head was shaved with electric clippers (patch of approx 3×5 cm between eye and ear). The region was carefully cleaned with septisol. Using aseptic technique, an incision was made midway between the eye and eardrum canal. The temporalis muscle was isolated, bisected, and reflected. A small window of bone was removed via drill and rongeurs (subtemporal craniectomy) to expose the middle cerebral artery (MCA). Care was taken not to remove the zygomatic arch or to transect the facial nerve that would impair the ability of the animal to chew after surgery. […] The MCA was then transected. The temporalis muscle was then repositioned, and the incision was closed subcutaneously with sutures. The skin incision was closed with surgical staples (2-3 required). Throughout the procedure, body temperature was maintained at 37.0°±1° C., using a self-regulating heating pad connected to a rectal thermometer. Dosing: Rats were treated in accordance with the dosing schedule shown in Tables 1A, 1B, and FIG. 2, with each Phase being a two week period of time. A solution of 4-AP was used in this experiment. Dosing was started at 4 weeks after ischemic event. Treatment groups: Dosing was started 4 weeks after pMCAO surgery. During these 4 weeks, weekly behavioral assessments, as defined below, were performed. Two dose levels of 4-AP plus vehicle control were assessed, with treatment starting at 4 weeks after ischemic event. All dosing was via gastric gavage, volume not to exceed 2 mL/kg. Animals were given the first dose and behavioral assessments were performed starting 60 minutes after dosing. Animals then received the second dose that day at the appropriate time and b.i.d (preferably every 12 hours) thereafter for 2 more days (3 total days of dosing, 5 total doses). One hour after the 5th dose, animals were subjected to behavioral assessments as defined below. Following the final behavioral assessment, drug was withdrawn for 10 or 11 days, behavior was re-assessed, and then animals were re-challenged with a cross-over treatment (Phase II of Table 1B) as described in Tables 1A, 1B, followed by the same behavioral testing and dosing regimen. This cross-over was repeated one more time as well (Phase III of Table 1B) (see FIG. 2). Behavioral test details: Behavioral evaluations were done by investigators blinded to treatment assignment. As described above, behavioral assessments were timed exactly with dosing times. Animals were given the first dose, behavioral assessments were performed starting 60 minutes later, and blood was collected 90 minutes after dosing. Animals then received the second dose that day at the appropriate time and b.i.d (preferably every 12 hours) thereafter for 2 more days (3 total days of dosing, 5 total doses). One hour after the 5th dose, animals were subjected to behavioral testing. […]

[2] = tested on: middle cerebral artery occlusion (MCAO) in rats; assay: Cylinder test, overall limb-use asymmetry (%) after MCAO; format: in vivo, Sprague Dawley rats; details: for Cylinder Test Score (Overall Asymmetry (%)): individual animals
Protocol: as §1

[3] = tested on: patients with multiple sclerosis; details: p<0.05; cited from earlier work
[4] = tested on: middle cerebral artery occlusion (MCAO) in rats; assay: Body swing test (% right swing) after MCAO; format: in vivo, Sprague Dawley rats; details: Group I
Protocol: as §1

[5] = Group I, Phase 1, D30, High 4-AP 2.0 mg/kg b.i.d. p.o., after first dose
[6] = Group I, Phase 1, D32, High 4-AP 2.0 mg/kg b.i.d. p.o., after 5th dose
[7] = Group I, Phase 2, D44, Low 4-AP 0.63 mg/kg b.i.d. p.o., after first dose
[8] = Group I, Phase 2, D46, Low 4-AP 0.63 mg/kg b.i.d. p.o., after 5th dose

Nc1ccncc1 [4-AP, 4-aminopyridine]
Forelimb Placing Total Score, Mean [1, 5]: 3.37
Forelimb Placing Total Score, Mean [1, 6]: 2.43
Forelimb Placing Total Score, Mean [1, 7]: 2.37
Forelimb Placing Total Score, Mean [1, 8]: 2.03
Forelimb Placing Total Score, Mean ([1]; Group II, Phase 1, D30, Low 4-AP 0.63 mg/kg b.i.d. p.o., after first dose): 4.20
Forelimb Placing Total Score, Mean ([1]; Group II, Phase 1, D32, Low 4-AP 0.63 mg/kg b.i.d. p.o., after 5th dose): 3.43
Forelimb Placing Total Score, Mean ([1]; Group II, Phase 3, D58, High 4-AP 2.0 mg/kg b.i.d. p.o., after first dose): 1.90
Forelimb Placing Total Score, Mean ([1]; Group II, Phase 3, D60, High 4-AP 2.0 mg/kg b.i.d. p.o., after 5th dose): 1.17
Forelimb Placing Total Score, Mean ([1]; Group III, Phase 2, D44, High 4-AP 2.0 mg/kg b.i.d. p.o., after first dose): 2.67
Forelimb Placing Total Score, Mean ([1]; Group III, Phase 2, D46, High 4-AP 2.0 mg/kg b.i.d. p.o., after 5th dose): 1.33
Forelimb Placing Total Score, Mean ([1]; Group III, Phase 3, D58, Low 4-AP 0.63 mg/kg b.i.d. p.o., after first dose): 2.00
Forelimb Placing Total Score, Mean ([1]; Group III, Phase 3, D60, Low 4-AP 0.63 mg/kg b.i.d. p.o., after 5th dose): 1.80
Forelimb Placing Total Score ([1]; Group I, Phase 1, D30 post-MCAO, High 4-AP 2.0 mg/kg b.i.d. p.o., 60 min after first dose): 4.50 (4×) and 3.50 (4×) and 4.00 and 5.50 and 3.00 (2×) and 0.50 and 1.00 and 1.50
Forelimb Placing Total Score ([1]; Group I, Phase 1, D32, High 4-AP 2.0 mg/kg b.i.d. p.o., 1 h after 5th dose): 3.00 (4×) and 2.00 (3×) and 3.50 (3×) and 2.50 and 0.50 (3×) and 4.00
Forelimb Placing Total Score ([1]; Group I, Phase 2, D44, Low 4-AP 0.63 mg/kg b.i.d. p.o., 60 min after first dose): 3.50 (2×) and 1.50 (2×) and 4.00 (4×) and 3.00 (2×) and 2.00 and 0.00 (2×) and 0.50 and 1.00
Forelimb Placing Total Score ([1]; Group I, Phase 2, D46, Low 4-AP 0.63 mg/kg b.i.d. p.o., 1 h after 5th dose): 3.50 (2×) and 1.50 (3×) and 3.00 (3×) and 4.00 and 2.50 (2×) and 0.00 (3×) and 1.00
Forelimb Placing Total Score ([1]; Group II, Phase 1, D30, Low 4-AP 0.63 mg/kg b.i.d. p.o., 60 min after first dose): 5.50 (3×) and 4.00 (2×) and 3.50 and 5.00 and 4.50 and 1.50 (2×)
Forelimb Placing Total Score ([1]; Group II, Phase 1, D32, Low 4-AP 0.63 mg/kg b.i.d. p.o., 1 h after 5th dose): 5.50 and 2.00 (2×) and 4.00 and 5.00 and 3.50 and 4.50 and 1.00 (2×) and 3.00
Forelimb Placing Total Score ([1]; Group II, Phase 3, D58, High 4-AP 2.0 mg/kg b.i.d. p.o., 60 min after first dose): 2.50 (2×) and 0.00 (3×) and 1.50 (2×) and 3.00 and 5.00 and 2.00
Forelimb Placing Total Score ([1]; Group II, Phase 3, D60, High 4-AP 2.0 mg/kg b.i.d. p.o., 1 h after 5th dose): 1.00 (4×) and 0.00 (4×) and 1.50 and 3.50
effect on forelimb function (forelimb placing test) ([1]; low or high dose, 4 weeks post ischemic brain injury, rats, dose-responsive, reversible): effective to improve forelimb function; also recorded: significant improvement
Cylinder Test Score (Overall Asymmetry (%)), Mean ([2]; Group II, D30, first dosing phase (low dose, inferred)): 26.98%
Cylinder Test Score (Overall Asymmetry (%)), Mean ([2]; Group II, D32, first dosing phase (low dose, inferred)): 23.50%
Cylinder Test Score (Overall Asymmetry (%)), Mean ([2]; Group II, D58, third dosing phase (high dose, inferred), N 12): 35.52%
Cylinder Test Score (Overall Asymmetry (%)), Mean ([2]; Group II, D60, third dosing phase (high dose, inferred), N 14): 4.43%
Cylinder Test Score (Overall Asymmetry (%)), Mean ([2]; Group III, D44, second dosing phase (high dose, inferred), N 13): 27.98%
Cylinder Test Score (Overall Asymmetry (%)), Mean ([2]; Group III, D46, second dosing phase (high dose, inferred), N 13): 10.17%
Cylinder Test Score (Overall Asymmetry (%)), Mean ([2]; Group III, D58, third dosing phase (low dose, inferred)): 12.32%
Cylinder Test Score (Overall Asymmetry (%)), Mean ([2]; Group III, D60, third dosing phase (low dose, inferred)): 3.23%
Cylinder Test Score (Overall Asymmetry (%)), Mean ([2]; group mean N=10, Group I, Phase 1, D30, High 4-AP 2.0 mg/kg b.i.d. p.o., after first dose): 17.78%
Cylinder Test Score (Overall Asymmetry (%)), Mean ([2]; group mean N=13, Group I, Phase 1, D32, High 4-AP 2.0 mg/kg b.i.d. p.o., after 5th dose): −15.95%
Cylinder Test Score (Overall Asymmetry (%)), Mean ([2]; group mean N=13, Group I, Phase 2, D46, Low 4-AP 0.63 mg/kg b.i.d. p.o., after 5th dose): 16.29%
Cylinder Test Score (Overall Asymmetry (%)), Mean ([2]; group mean N=15, Group I, Phase 2, D44, Low 4-AP 0.63 mg/kg b.i.d. p.o., after first dose): 10.38%
Cylinder Test Score (Overall Asymmetry (%)) [2, 5]: 9.33% and 0.00% and 50.00% (3×) and 16.67% and 38.46% and −16.67% and −100.00% and 80.00%
Cylinder Test Score (Overall Asymmetry (%)) [2, 6]: 36.36% and 24.07% and 22.73% and 5.13% and −30.00% and −100.00% (2×) and 50.00% (2×) and −60.00% and −65.79% and 16.67% and −56.52%
Cylinder Test Score (Overall Asymmetry (%)) [2, 7]: 60.71% and 25.81% and 39.58% and 22.81% and 31.91% and 33.33% (2×) and 39.02% and −45.45% and −60.00% and −56.06% and 40.00% and 9.30% and 10.00% and −28.57%
Cylinder Test Score (Overall Asymmetry (%)) [2, 8]: 63.64% and 14.89% and 30.23% and 33.33% (3×) and 36.96% and −8.33% (2×) and 25.00% and −100.00% and 50.00% and 7.69%
effect on body symmetry and coordination (cylinder test) ([2]; rats after MCAO, reversible and dose-dependent): effective to improve the asymmetry in limb usage
leg strength (LEMMT) relative to placebo [3]: statistically significantly improved
Body Swing Test (% right Swing) ([4]; D30, individual animals): 33.33% (3×) and 53.33% and 40.00% (2×) and 30.00% and 36.67% (5×) and 43.33% and 26.67% and 46.67%
Body Swing Test (% right Swing), Mean ([4]; D30, mean of N 15): 37.56%
